Experimental data reported in patent publication US20100035856A1, “Beta-LACTAM-CONTAINING FORMULATIONS WITH INCREASED STABILITY IN AQUEOUS SOLUTION” (BAYER ANIMAL HEALTH GMBH, priority 2007, published 2010).

Test: Stability of amoxicillin/K-clavulanate 4:1 in aqueous solution with urea
Assay type: physicochemical

| SMILES | loss of active ingredient (amoxicillin in aqueous amoxiclav solution containing 40% urea, within 24 hours) | stability of clavulanic acid, effect of urea (aqueous amoxiclav solution with urea (FIG. 4)) |
| --- | --- | --- |
| CC1(C)S[C@@H]2[C@H](NC(=O)[C@H](N)c3ccc(O)cc3)C(=O)N2[C@H]1C(=O)O [amoxicillin] | less than 10% | – |
| O=C(O)[C@H]1/C(=C/CO)O[C@@H]2CC(=O)N21 [clavulanic acid] | – | not adversely affected at all |
